Source: patent US20120035256A1, “Use of bipolar trans carotenoids as a pretreatment and in the treatment of peripheral vascular disease” (Diffusion Pharmaceuticals LLC, priority 2008, published 2012)

How the values were obtained:
[1] = Rat transcutaneous oxygen (TCOM) study with 100% oxygen; format: in vivo; details: male Sprague-Dawley rats breathing 100% oxygen, TSC injected into femoral vein, 45 minutes recording, FIG. 1
Method: For the rat TCOM studies, male Sprague-Dawley rats were used which weighed between 350 and 400 grams each. TCOM electrodes are attached to humans on the chest, on the leg, or on the top of the foot. Using a TCOM apparatus (Radiometer), the electrodes were attached to the shaven skin in the areas of the chest, the abdomen, and the thigh of the rats. Pure oxygen was then administered to the rats. The most reproducible results came from the electrode attached near the rat's abdomen, on the left or right side.
The rats were anesthetized (to quiet them) using IP injections of 80 mg/kg ketamine and 10 mg/kg xylazine.
After the animals were asleep, the abdomen area of the rat was shaved and the TCOM electrode collar was attached to that area. Using Dow Corning high vacuum silicone grease between the electrode collar and the skin was helpful in maintaining a good seal on the rat's skin.
After attaching the TCOM probe, the transcutaneous oxygen tension was then monitored for 30 minutes while the rat breathed room air. The rat was then switched to 100% oxygen and TSC was injected into the femoral vein. The TCOM readings were then recorded for an additional 45 minutes.

[2] = tested on: focal cerebral ischemia (three vessel occlusion: both CCA and MCA); assay: Three vessel occlusion focal cerebral ischemic model; format: in vivo, rat
Description: Preconditioning or pretreating a patient (mammal including human) with a bipolar trans carotenoid is advisable for the following patients: • a patient at risk of an ischemic event; • a patient at risk of forming an embolism or blood clot in the blood vessels, the brain, the heart, or the lungs. The embolism can be fat globules (a fat embolism), air bubbles (an air embolism), talc embolism (often following drug abuse), septic emboli (containing pus and bacteria), atherosclerotic emboli, or amniotic fluid; • a patient at risk of stroke including a patient diagnosed with a blocked carotid artery or having suffered a transient ischemic attack (TIA). In Example 2, TSC was administered intravenously to rats 24 hours before the ischemic injury to the brain occurred. Sufficient time passed between the administration of TSC and the subsequent event so that the TSC would have been cleared from the system. The TSC was dissolved in water, and given over a period of an hour in the following manner. First a 0.1 ml bolus injection was given, then a slow infusion (0.6 ml given over 60 minutes) was given, and finally another 0.1 ml bolus was given. […] The occlusions were removed after 2 hours, and the infarct volume (core plus penumbra) was measured 24 hours later. […]
Trans-sodium crocetinate (0.091 mg/kg total dosage) or vehicle was administered intravenously as follows 1) 0.1 ml injection 2) continuous infusion of TSC at a rate of 0.01 ml/min for the next 60 minutes, and 3) a final 0.1 ml injection of TSC 30 minutes after the cessation of continuous infusion. […] Infarction volumes were measured 24 hours after the ischemic event.
The effects of TSC on focal ischemic injury were examined using adult male Sprague-Dawley rats, each of which weighed between 330 and 370 g. […] Rectal temperature was monitored continuously and maintained at 37° C. with a heating lamp. […]
Focal ischemic was performed by clipping (Sundt AVM microclip No 1, Codman & Shurtleff, Inc., Raynham, Mass.) the MCA at a point distal to the origin of the lenticulostriate arteries. […] After 24 hours, infarct volume was calculated. […]

[3] = tested on: atherosclerotic plaque formation; details: rabbits; Gainer and Chisolm, Atherosclerosis 19: 135-138, 1974; cited from earlier work

SMILES | TCOM reading (transcutaneous oxygen tension) [1] | Infarct volume (actual, adjusted for swelling) ([2]; 3VO+TSC group, TSC 0.091 mg/kg total i.v. 24 hours before 120 min ischemia, measured 24 hours after the ischemic event, mean±SEM, p<0.01 vs 3VO-only or 3VO+Vehicle) [mm3] | Reduction in infarct volume, preischemic treatment ([2]; TSC 0.091 mg/kg i.v. 24 hours before ischemic injury, occlusions removed after 2 hours, infarct volume measured 24 hours later) [%] | Reduction in infarct volume, intraischemic treatment ([2]; intraischemic treatment with TSC done previously in this model) [%] | Atherosclerotic plaque formation over time [3]
CC(/C=C/C=C(\C)C(=O)[O-])=C\C=C\C=C(C)\C=C\C=C(/C)C(=O)[O-].[Na+].[Na+] [TSC, trans sodium crocetinate] | additional increase in the TCOM reading | 57.7±16.2 | 65 | 58 | –
CC(/C=C/C=C(\C)C(=O)O)=C\C=C\C=C(C)\C=C\C=C(/C)C(=O)O [Crocetin] | – | – | – | – | reduction in atherosclerotic plaque formation
